# Key:
# [1] = target: T1, HSF1 DNA-binding activity (Homo sapiens, UniProt Q00613); assay: EMSA of extracts of heat-treated HeLa cells exposed to compound; type: cell-based; conditions: HeLa cells exposed to different concentrations, heat-treated 43° C./30 min; effect of IHSF 058 at 25 or 50 μM
# T1 construct: functionally linked to an hsp70b promoter and therefore controlled by endogenous HSF1; endogenous in cells; host or cells: HeLa cells / HeLa-derived cell line Z74
# Procedure: (§1) FIG. 3. (A) HeLa cell cultures were mock-treated (−) or exposed for 2 hours to the indicated concentrations of compounds 058 or 115 and then heat-treated (HS) at 43° C. for 30 min. Top panels: HSF1 DNA-binding activities in cell extracts were determined by EMSA. The panels show the major HSF1-HSE DNA probe complexes. Middle panels: HSF1 levels assayed by western blot (WB). GAPDH served as a loading control. Bottom panels: HSF1 homooligomerization. Aliquots of extracts were EGS-treated and then analyzed by anti-HSF1 WB. The positions of pre-stained molecular weight marker proteins (MW, in thousands) are indicated to the right. Asterisks indicate the positions of monomeric and trimeric HSF1, respectively. (B) Relative occupancy of the hspa1a promoter was assessed by chromatin immunoprecipitation assay of HeLa cell cultures mock-treated (−) or treated with compounds 058 or 115 at 12.5 μM concentrations for 2 hours and then heat-treated (HS) at 43° C. for 30 min. Chromatin fragments were immunoprecipitated using HSF1 antibodies or an F4/80 LR (control) antibody, and associated hspa1a promoter DNA was quantified by real-time PCR. […]
# HSF1 levels = target: T2, HSF1 levels (Homo sapiens, UniProt Q00613); assay: Anti-HSF1 western blot of HeLa cell extracts; type: cell-based; conditions: same extracts of exposed, heat-treated HeLa cells
# T2 construct: functionally linked to an hsp70b promoter and therefore controlled by endogenous HSF1; endogenous in cells; host or cells: HeLa cells / HeLa-derived cell line Z74
# Procedure: as §1
# HSF1 oligomerization = target: T3, HSF1 oligomerization (Homo sapiens, UniProt Q00613); assay: EGS cross-linking and anti-HSF1 western blot (HSF1 oligomerization); type: cell-based; conditions: extracts of exposed, heat-treated HeLa cells
# T3 construct: functionally linked to an hsp70b promoter and therefore controlled by endogenous HSF1; endogenous in cells; host or cells: HeLa cells / HeLa-derived cell line Z74
# Procedure: FIG. 3. (A) HeLa cell cultures were mock-treated (−) or exposed for 2 hours to the indicated concentrations of compounds 058 or 115 and then heat-treated (HS) at 43° C. for 30 min. Top panels: HSF1 DNA-binding activities in cell extracts were determined by EMSA. The panels show the major HSF1-HSE DNA probe complexes. Middle panels: HSF1 levels assayed by western blot (WB). GAPDH served as a loading control. Bottom panels: HSF1 homooligomerization. Aliquots of extracts were EGS-treated and then analyzed by anti-HSF1 WB. The positions of pre-stained molecular weight marker proteins (MW, in thousands) are indicated to the right. Asterisks indicate the positions of monomeric and trimeric HSF1, respectively. (B) Relative occupancy of the hspa1a promoter was assessed by chromatin immunoprecipitation assay of HeLa cell cultures mock-treated (−) or treated with compounds 058 or 115 at 12.5 μM concentrations for 2 hours and then heat-treated (HS) at 43° C. for 30 min. Chromatin fragments were immunoprecipitated using HSF1 antibodies or an F4/80 LR (control) antibody, and associated hspa1a promoter DNA was quantified by real-time PCR.
# We also investigated whether the compounds were capable of interfering with HSF1 oligomerization. Aliquots of the extracts were subjected to cross-linking with EGS (ethylene glycolbis(succinimidylsuccinate)) and then re-analyzed by anti-HSF1 WB. […]
# [2] = test system: hsp70b/hspa7 promoter-driven rluc gene; assay: Reverse transcription real-time PCR of rluc mRNA in Z74 cells; type: cell-based, human; conditions: for rluc mRNA levels at 1 μM: 1 μM concentrations of the IHSF; for transcript levels of the hsp70b/hspa7 promoter-driven rluc gene: 2 h exposure at different concentrations, heat treatment, 1 h post-incubation at 37° C.
# Procedure: (§2) FIG. 4. (A) rluc, hspa7 and hspa1a mRNA levels in Z74 cells mock-exposed (−) or exposed to the indicated concentrations of compounds 058 or 115 for 2 hours, heat-treated (HS) at 43° C. for 30 min and post-incubated for one hour at 37° C. mRNA levels were quantified by reverse transcription-real-time PCR. (B) HSP72 levels in HeLa cells mock-exposed (−) or exposed to the indicated concentrations of compounds 058 or 115 for 2 hours, heat-treated (HS) at 43° C. for 30 min and post-incubated for 6 hours at 37° C. HSP72 levels were estimated by HSP72 WB. GAPDH levels served as “loading controls”.
# (§3) To assess the transcriptional effects of the IHSF, cultures of Z74 cells were exposed for two hours to IHSF 058 or IHSF 115 at different concentrations, or to vehicle. Following heat treatment and a one-hour post-incubation at 37° C., extracts were prepared, and polyadenylated rluc, hsp70b (hspa7) and hspa1a RNA was quantified by reverse transcription and real-time PCR. […] IHSF 115 had somewhat more important effects than IHSF 058. […] We tend to discount the possibility that the latter data report effects on transcript stability.
# hspa7 (hsp70b) = assay: Reverse transcription real-time PCR of hspa7 (hsp70b) mRNA in Z74 cells; type: cell-based, human; conditions: heat-treated, somewhat less sensitive than rluc gene
# Procedure: as §2, §3
# inducible Hsp70 (HSP72) = assay: HSP72 western blot in heat-treated HeLa cells; type: cell-based, human
# Procedure: as §2
# PC-3 tumor xenograft = assay: Human prostate cancer PC-3 xenograft model in athymic mice; type: in vivo; conditions: for tumor growth: period of daily administration (7 days)
# Procedure: Prostate cancer cell line PC-3 was obtained from ATTC and grown in tissue culture under standard conditions. Groups (8 animals) of athymic mice (6-7 weeks old, male, obtained from Harlan) were inoculated subcutaneously on the right flank with 5×10^6 PC-3 cells. Cells were administered as a 1:1 mixture of cells in medium and Matrigel. Treatment was initiated when tumor size reached about 200 mg, at which time the mice were randomized. Of the various groups in the experiment, one group received a daily intravenous dose (via the tail vein) of 2 mg IHSF 115 in an aqueous solution of Kleptose HPB (see Example 2.1) for 7 days, followed by additional dosing with 2 mg IHSF 115 every other day. Another group received a daily dose of 0.8 mg IHSF 115 in an aqueous solution of Kleptose HPB (see Example 2.1) for 7 days, followed by additional dosing with 0.8 mg IHSF 115 every other day. A control group was subjected to same regimen, administering vehicle (Kleptose HPB solution) only. Tumor size and weight were assessed periodically and recorded. Tumor size was estimated using calipers. Calculation: tumor weight (mg)=(a×b^2/2) where ‘b’ is the smallest diameter and ‘a’ is the largest diameter. […] Loss of weight for the period was less than 4%.
# T3 sequence (Q00613 whole entry): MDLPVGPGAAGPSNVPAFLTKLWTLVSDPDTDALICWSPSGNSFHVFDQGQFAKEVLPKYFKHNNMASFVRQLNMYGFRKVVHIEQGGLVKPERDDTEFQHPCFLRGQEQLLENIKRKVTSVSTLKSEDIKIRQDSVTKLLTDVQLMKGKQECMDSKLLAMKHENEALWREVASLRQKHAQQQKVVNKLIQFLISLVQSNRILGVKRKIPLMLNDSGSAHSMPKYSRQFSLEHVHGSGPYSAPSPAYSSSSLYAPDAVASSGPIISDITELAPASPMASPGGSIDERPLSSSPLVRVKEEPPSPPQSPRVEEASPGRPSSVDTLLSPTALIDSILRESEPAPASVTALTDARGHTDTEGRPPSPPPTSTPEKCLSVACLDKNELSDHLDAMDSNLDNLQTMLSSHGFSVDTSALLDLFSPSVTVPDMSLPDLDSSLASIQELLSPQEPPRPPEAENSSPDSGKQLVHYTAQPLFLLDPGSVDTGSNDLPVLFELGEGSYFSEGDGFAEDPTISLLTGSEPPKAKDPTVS
# T1 sequence (Q00613 whole entry): as above
# T2 sequence (Q00613 whole entry): as above
structure (smiles),measurement,setting,value
"CCOC(=O)/C=C/C(=O)Nc1ncc(-c2cccnc2)s1 [IHSF 058, (E)-3-(5-Pyridm-3-yl-thiazol-2-ylcarbamoyl)-acrylic acid ethyl ester]",heat-induced HSF1 DNA-binding activity (EMSA),[1],important reductions
same,HSF1 levels (anti-HSF1 western blot),HSF1 levels,reduced levels of HSF1
same,"HSF1 oligomerization (EGS cross-linking, anti-HSF1 WB)",HSF1 oligomerization,No impairment of oligomerization
same,rluc mRNA levels at 1 μM,[2],substantially reduced
same,transcript levels of the hsp70b/hspa7 promoter-driven rluc gene,[2],dose-dependent reduction
same,hspa7 (hsp70b) transcript accumulation,hspa7 (hsp70b),Dose-dependent inhibitory effects
same,"heat-induced accumulation of inducible Hsp70 (WB), relative effectiveness",inducible Hsp70 (HSP72),less effective than IHSF 115
"CN(C(=O)/C=C/C1=NCCCO1)c1ncc(-c2cccnc2)s1 [IHSF 115, (E)-3-(5,6-Dihydro-4H-[1,3]oxazin-2-yl)-N-methyl-N-(5-pyridin-3-yl-thiazol-2-yl)-acrylamide]",heat-induced HSF1 DNA-binding activity (EMSA),[1],failed to have a similar effect
same,HSF1 levels (anti-HSF1 western blot),HSF1 levels,did not affect HSF1 levels
same,"HSF1 oligomerization (EGS cross-linking, anti-HSF1 WB)",HSF1 oligomerization,No impairment of oligomerization
same,rluc mRNA levels at 1 μM,[2],substantially reduced
same,transcript levels of the hsp70b/hspa7 promoter-driven rluc gene,[2],dose-dependent reduction
same,hspa7 (hsp70b) transcript accumulation,hspa7 (hsp70b),Dose-dependent inhibitory effects
same,heat-induced accumulation of inducible Hsp70 (WB),inducible Hsp70 (HSP72); 3.125 μM,detectable inhibitory effects
same,heat-induced accumulation of inducible Hsp70 (WB),inducible Hsp70 (HSP72); 6.25 μM,more substantial effects
same,tumor growth,PC-3 tumor xenograft; 0.8 mg daily dose in aqueous Kleptose HPB,smaller effect
same,tumor growth,PC-3 tumor xenograft; 2 mg daily intravenous in aqueous Kleptose HPB,substantial (and statistically significant) reduction in tumor growth
same,toxicity,"PC-3 tumor xenograft; athymic mice, intravenous via the tail vein","No toxicity was observed, except for some local swelling in the inoculation region"
same,Loss of weight for the period,PC-3 tumor xenograft; period of daily administration,less than 4%

# — patent US11597708B2, “Inhibitors of heat shock factors and uses thereof” (HSF Pharmaceuticals SA, priority 2016, dated 2023)
